In patent US20260315431A1, “NANOMATERIAL ENCAPSULATED BIOFILM INHIBITORS FOR DENTAL CARIES TREATMENT” (THE UAB RESEARCH FOUNDATION, priority 2023, published 2026):
Entries after “also recorded” stand apart in the source; their conditions may differ.

How the values were obtained:
[1] = tested on: S. mutans UA159; assay: Gnotobiotic rat model of dental caries (PEHA5 / HA5 study, Example 2); assay type: in vivo, gnotobiotic rats infected with S. mutans UA159; parameters: key to Buccal Mean Caries Scores (±SEM) E / Buccal Mean Caries Scores (±SEM) Ds / Buccal Mean Caries Scores (±SEM) Dm / Buccal Mean Caries Scores (±SEM) Dx / Sulcal Mean Caries Scores (± SEM) E / Sulcal Mean Caries Scores (± SEM) Ds / Sulcal Mean Caries Scores (± SEM) Dm / Sulcal Mean Caries Scores (± SEM) Dx / Proximal Mean Caries Scores (± SEM) E / Proximal Mean Caries Scores (± SEM) Ds: caries scored by the Keyes method; settings: 100 μM
Description: The effect of PEHA5 on S. mutans colonization and virulence was compared side-by-side with HA5 using a well-established gnotobiotic rat model of dental caries^[50-54]. A (vehicle+infection only) group was included as a negative control. All rats from the experimental groups and from the control group were colonized with S. mutans UA159. […] Similar reductions in caries scores were also observed in sulcal caries scores and proximal caries scores (Table 5). We were unable to record the effect of the treatment on dentinal moderate (Dm) and dentinal extensive (Dx) scores in the proximal area due to the absence of dentinal lesions in the control and treated groups.
We used Fischer 344 rats that were bred and maintained in trexler isolators for this experiment. Male and female rat pups were removed from isolators at 20 days of age and randomly assigned into treatment groups of 5 rats/group in cages with filter tops. Rats were then infected with S. mutans UA159 strain by oral swabbing daily for four consecutive days with a fresh overnight culture of S. mutans UA159. Rats were provided with caries promoting Teklad Diet 305 containing […] (Harlan Laboratories, Inc., Indianapolis, IN) and sterile drinking water ad libitum. Oral swabs were taken 5 days post-infection and plated on Todd Hewitt (TH) agar plates and incubated at 37° C. in an environment of 5% CO2 in the air to confirm colonization. Rats were weighed at weaning and then weekly throughout the experiment. One-week post-infection, the molars of the rats were brushed twice daily for 4 weeks with the test compounds using camel-hair brushes. Four treatment groups used in this study were: 1) HA5 (100 μM); 2) […] (100 μM); 3) NaF (250 ppm); and 4) infected untreated rats. Drinking water was withheld for 60 min following each treatment with the compound. Animals were weighed at weaning and at the termination of the experiment. On day 60, the rats were sacrificed using CO2 followed by cervical dislocation or bilateral thoracotomy. The mandibles were surgically removed and cleaned of excess tissue to assess the level of bacteria present and the extent of caries formation. The right mandible from each rat was placed in a tube containing phosphate buffer (3 mL), placed on ice and sonicated (10 sec) to release bacteria from the molars. Each sample was serially diluted, plated on blood (BAP) and mitis-salivarius (MS) agar plates and incubated in an environment of 5% CO2 in air at 37° C. to quantify the level of total bacteria and S. mutans present in the plaque. The right and left mandibles from each rat were then placed in 95% ethanol for 24 h. The mandibles will be cleaned and stained overnight with murexide solution. After drying, the mandibles were sectioned and scored for caries activity using the Keyes method Caries scores were recorded for the buccal, sulcal and proximal molar surfaces individually so that differences among the surfaces can be distinguished. Statistical significance in the mean caries scores, colony-forming units (CFU)/mandible and body weights between groups of rats were determined by one-way analysis of variance (ANOVA) with the Tukey-Kramer multiple comparison test using the InStat program (GraphPad Prism 10.0.2.). When determining the statistical significance between the two groups, an unpaired t-test was applied. Differences between groups were considered significant at a P-value<0.05.

[2] = tested on: S. gordonii DL1; assay: Planktonic growth, S. gordonii DL1 (OD470); assay type: cell-based, Streptococcus gordonii
Experimental: (§1) The bacterial strains, S. mutans UA159, S. gordonii DL1, and S. sanguinis SK36 were inoculated statically at 37° C. under 5% CO2 in Todd Hewitt Broth (THB) for 24 h. The cultures were then diluted with fresh THB (1:5) and reinoculated until optical density at 470 nm (OD470) reached 1. The optical density was read using BioTek 800TS microplate reader at 470 nm for bacterial growth and 562 nm for biofilm stained with crystal violet. Data was plotted in Graphpad Prism9.
(§2) S. mutans, S. gordonii, and S. sanguinis growth assays. Effects of compounds on S. mutans and commensal bacterial growth were evaluated using the growth assay as described^69. S. mutans UA159, S. gordonii DL1, S. sanguinis SK36, cultures were grown for 24 h under 5% CO2 at 37° C. These cultures were then reinoculated with fresh THB (1:5) until OD470=1 when the bacteria were ready to be used. Different concentrations of the inhibitor were assayed in chemically defined media (CDM) with 1% of the bacteria, 1% sucrose and 1% DMSO in 96 well plates. The 96 well plates were incubated under 5% CO2 at 37° C. for 16 h. Growth of the bacteria was read after 16 h at OD470. Each assay was carried out at least in triplicate.
(§3) All bacterial strains (S. mutans UA159, S. gordonii DL1, and S. sanguinis SK36) were inoculated statically at 37° C. under 5% CO2 environment in Todd Hewitt Broth (THB) for 24 h^[61]. The cultures were then diluted with fresh THB (1:5) and reinoculated until the optical density at 470 nm reaches 1. The optical density was read using BioTek 800 TS absorbance reader at 470 nm for bacterial growth and 562 nm for biofilm stained with crystal violet. Data was plotted in Prism 10.0.2.
as §2, with “Effects” for “S. mutans, S. gordonii, and S. sanguinis growth assays. Effects”, “PEHA5, PEHA6, HA5 or HA6” for “compounds”, “described^[62].” for “described^69.”, “PEHA5, PEHA6, HA5 or HA6” for “inhibitor”, “CDM” for “chemically defined media (CDM)”

[3] = tested on: S. mutans UA159; assay: Planktonic growth, S. mutans UA159 (OD470); assay type: cell-based, Streptococcus mutans
Experimental: as §1, §2, §3
as §2, with “Effects” for “S. mutans, S. gordonii, and S. sanguinis growth assays. Effects”, “PEHA5, PEHA6, HA5 or HA6” for “compounds”, “described^[62].” for “described^69.”, “PEHA5, PEHA6, HA5 or HA6” for “inhibitor”, “CDM” for “chemically defined media (CDM)”

## O=C1/C(=C/c2cc(O)c(O)cc2O)Oc2ccccc21 [HA5, 2-[(2′,4′,5′-Trihydroxyphenyl)methylidene]-2,3-dihydro-1-benzofuran-3-one]
[1]; 4-week treatment
  effect on bacterial colonization: did not affect bacterial colonization significantly
  reduction in caries scores: significant reductions in buccal caries scores
[1]; Blood agar plate
  CFU/mL BAP: 5.2 ± 1.4 CFU/mL (×10^5)
[1]; Mitis-Salivarius agar
  CFU/mL MS: 5.5 ± 2.6 CFU/mL (×10^5)
[1]; dentinal extensive, 4 weeks
  Buccal Mean Caries Scores (±SEM) Dx: 1.4 ± 0.4
  Sulcal Mean Caries Scores (± SEM) Dx: 4.8 ± 0.9
[1]; dentinal moderate, 4 weeks
  Buccal Mean Caries Scores (±SEM) Dm: 2.8 ± 0.5
  Sulcal Mean Caries Scores (± SEM) Dm: 9.4 ± 0.5
[1]; dentinal slight, 4 weeks
  Buccal Mean Caries Scores (±SEM) Ds: 6.4 ± 1.0
  Proximal Mean Caries Scores (± SEM) Ds: 3.4 ± 0.6
  Sulcal Mean Caries Scores (± SEM) Ds: 15.0 ± 0.9
[1]; enamel, 4 weeks
  Buccal Mean Caries Scores (±SEM) E: 9.0 ± 0.6
  Proximal Mean Caries Scores (± SEM) E: 5.2 ± 0.5
  Sulcal Mean Caries Scores (± SEM) E: 20.6 ± 0.8
[2]; 25 μM
  planktonic growth of S. gordonii: did not affect the planktonic growth
[2]; 50 μM and 100 μM (100 μM)
  growth of S. gordonii: did not inhibit the growth; also recorded: does not inhibit the growth
[2]; DL1
  dose without growth inhibition of commensals (100 μM) relative to biofilm IC50: 14 fold
[2]; at biofilm inhibiting doses
  growth of S. gordonii: without affecting the growth
[3]; 25 μM
  planktonic growth of S. mutans: did not affect the planktonic growth
[3]; 50 μM
  planktonic growth of S. mutans: did not inhibit the planktonic growth; also recorded: no effect on growth; also recorded: did not inhibit the growth significantly
[3]; 50 μM and 100 μM
  growth of S. mutans: did not inhibit S. mutans growth

## O=C1/C(=C/c2cc(O)c(O)c(O)c2)Oc2ccccc21 [HA6, 2-[(3′,4′,5′-Trihydroxyphenyl)methylidene]-2,3-dihydro-1-benzofuran-3-one]
[2]; 25 μM and 50 μM
  growth inhibition of S. gordonii: about 10%
[2]; at biofilm inhibiting doses
  growth of S. gordonii: without affecting the growth
[3]; 25 μM and 50 μM
  viability of S. mutans: did not inhibit S. mutans viability
[3]; 50 μM
  planktonic growth of S. mutans: did not inhibit the planktonic growth; also recorded: no effect on growth; also recorded: inhibited the planktonic growth slightly
